Tests used:
Assay in all cases: Kinase assay, 1 mM ATP
Format in all cases: biochemical
EGFR(d746-750) = biological target: T1, EGFR(d746-750) (Homo sapiens, UniProt P00533, DEL746-750)
T1 construct: purchased Carna Biosciences
Protocol: (§1) An off-chip mobility shift assay was performed by Carna Biosciences, Inc. (Kobe, Japan), according to their product instructions. […] The IC50 values were estimated according to the four-parameter logistic model.

FLT4 = biological target: T2, FLT4 (Homo sapiens, UniProt P35916)
T2 construct: purchased Carna Biosciences
Protocol: as §1

Erk2 = Erk2 (Homo sapiens, UniProt P28482)
Protocol: as §1

FGR = FGR (Homo sapiens, UniProt P09769)
Protocol: as §1

RET(S891A) = biological target: T3, RET(S891A) (Homo sapiens, UniProt P07949, S891A)
T3 construct: purchased Carna Biosciences
Protocol: as §1

PDGFRα = biological target: T4, PDGFRα (Homo sapiens, UniProt P16234)
T4 construct: purchased Carna Biosciences
Protocol: as §1

MET = biological target: T5, MET (Homo sapiens, UniProt P08581)
T5 construct: purchased Carna Biosciences
Protocol: as §1

CDK2/CycA2 = CDK2/CycA2 (Homo sapiens, UniProt P24941)
Protocol: as §1

JNK1 = JNK1 (Homo sapiens, UniProt P45983)
Protocol: as §1

YES = YES (Homo sapiens, UniProt P07947)
Protocol: as §1

AurB = AurB (Homo sapiens, UniProt Q96GD4)
Protocol: as §1

LYNb = biological target: T6, LYNb (Homo sapiens, UniProt P07948)
T6 construct: purchased Carna Biosciences
Protocol: as §1

EPHA5 = EPHA5 (Homo sapiens, UniProt P54756)
Protocol: as §1

PLK3 = biological target: T7, PLK3 (Homo sapiens, UniProt Q9H4B4)
T7 construct: purchased Carna Biosciences
Protocol: as §1

MAPKAPK2 = biological target: T8, MAPKAPK2 (Homo sapiens, UniProt P49137)
T8 construct: purchased Carna Biosciences
Protocol: as §1

ROCK1 = ROCK1 (Homo sapiens, UniProt Q13464)
Protocol: as §1

INSR = biological target: T9, INSR (Homo sapiens, UniProt P06213)
T9 construct: purchased Carna Biosciences
Protocol: as §1

DYRK1B = DYRK1B (Homo sapiens, UniProt Q9Y463)
Protocol: as §1

NEK9 = biological target: T10, NEK9 (Homo sapiens, UniProt Q8TD19)
T10 construct: purchased Carna Biosciences
Protocol: as §1

BRK = biological target: T11, BRK (Homo sapiens, UniProt Q13882)
T11 construct: purchased Carna Biosciences
Protocol: as §1

CaMK4 = CaMK4 (Homo sapiens, UniProt Q16566)
Protocol: as §1

EPHB3 = EPHB3 (Homo sapiens, UniProt P54753)
Protocol: as §1

CDK7/CycH/MAT1 = CDK7/CycH/MAT1 (Homo sapiens, UniProt P50613)
Protocol: as §1

RET(G691S) = biological target: T12, RET(G691S) (Homo sapiens, UniProt P07949, G691S)
T12 construct: purchased Carna Biosciences
Protocol: as §1

EPHA8 = biological target: T13, EPHA8 (Homo sapiens, UniProt P29322)
T13 construct: purchased Carna Biosciences
Protocol: as §1

EPHA6 = EPHA6 (Homo sapiens, UniProt Q9UF33)
Protocol: as §1

CK1α = CK1α (Homo sapiens, UniProt P48729)
Protocol: as §1

Erk1 = Erk1 (Homo sapiens, UniProt P27361)
Protocol: as §1

FGFR2 = FGFR2 (Homo sapiens, UniProt P21802)
Protocol: as §1

PKCε = biological target: T14, PKCε (Homo sapiens, UniProt Q02156)
T14 construct: purchased Carna Biosciences
Protocol: as §1

KDR = biological target: T15, KDR (Homo sapiens, UniProt P35968)
T15 construct: purchased Carna Biosciences
Protocol: as §1

JNK2 = JNK2 (Homo sapiens, UniProt P45984)
Protocol: as §1

RSK3 = RSK3 (Homo sapiens, UniProt Q15349)
Protocol: as §1

GSK3α = GSK3α (Homo sapiens, UniProt P49840)
Protocol: as §1

EPHB1 = EPHB1 (Homo sapiens, UniProt P54762)
Protocol: as §1

AXL = biological target: T16, AXL (Homo sapiens, UniProt P30530)
T16 construct: purchased Carna Biosciences
Protocol: as §1

SGK = biological target: T17, SGK (Homo sapiens, UniProt O00141)
T17 construct: purchased Carna Biosciences
Protocol: as §1

SIK = biological target: T18, SIK (Homo sapiens, UniProt P57059)
T18 construct: purchased Carna Biosciences
Protocol: as §1

HCK = HCK (Homo sapiens, UniProt P08631)
Protocol: as §1

FGFR1 = biological target: T19, FGFR1 (Homo sapiens, UniProt P11362)
T19 construct: purchased Carna Biosciences
Protocol: as §1

IRAK4 = IRAK4 (Homo sapiens, UniProt Q9NWZ3)
Protocol: as §1

CDC2/CycB1 = CDC2/CycB1 (Homo sapiens, UniProt P06493)
Protocol: as §1

Chain of IRAK4 (Q9NWZ3 whole entry): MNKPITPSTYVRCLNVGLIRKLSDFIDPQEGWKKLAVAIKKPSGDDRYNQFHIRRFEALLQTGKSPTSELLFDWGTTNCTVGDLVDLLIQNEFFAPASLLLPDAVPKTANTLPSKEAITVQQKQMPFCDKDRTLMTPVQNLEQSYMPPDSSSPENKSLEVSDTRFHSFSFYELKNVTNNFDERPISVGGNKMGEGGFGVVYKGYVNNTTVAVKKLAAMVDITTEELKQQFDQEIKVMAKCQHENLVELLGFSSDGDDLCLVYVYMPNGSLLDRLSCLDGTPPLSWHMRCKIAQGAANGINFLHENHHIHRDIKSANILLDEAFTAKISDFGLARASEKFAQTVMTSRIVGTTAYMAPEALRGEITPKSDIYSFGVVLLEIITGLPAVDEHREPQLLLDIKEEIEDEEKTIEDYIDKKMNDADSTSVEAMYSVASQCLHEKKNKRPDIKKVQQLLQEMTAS
Chain of DYRK1B (Q9Y463 whole entry): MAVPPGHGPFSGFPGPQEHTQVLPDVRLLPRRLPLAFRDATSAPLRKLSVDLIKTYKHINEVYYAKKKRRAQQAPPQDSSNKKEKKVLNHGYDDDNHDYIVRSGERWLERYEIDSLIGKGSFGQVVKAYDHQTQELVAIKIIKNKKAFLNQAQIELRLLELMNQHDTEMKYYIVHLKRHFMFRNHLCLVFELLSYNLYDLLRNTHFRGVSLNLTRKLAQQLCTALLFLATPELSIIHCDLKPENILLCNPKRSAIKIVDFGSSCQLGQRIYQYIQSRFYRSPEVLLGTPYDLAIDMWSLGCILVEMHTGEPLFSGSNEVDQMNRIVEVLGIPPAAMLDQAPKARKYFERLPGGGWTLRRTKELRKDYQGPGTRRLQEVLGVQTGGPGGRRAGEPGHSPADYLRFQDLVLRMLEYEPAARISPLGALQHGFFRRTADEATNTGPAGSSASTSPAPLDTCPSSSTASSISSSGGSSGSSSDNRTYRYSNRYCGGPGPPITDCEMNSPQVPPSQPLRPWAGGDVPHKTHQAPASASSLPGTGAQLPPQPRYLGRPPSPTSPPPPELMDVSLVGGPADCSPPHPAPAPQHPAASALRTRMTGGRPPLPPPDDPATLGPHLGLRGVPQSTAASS
Chain of EPHB3 (P54753 34-998): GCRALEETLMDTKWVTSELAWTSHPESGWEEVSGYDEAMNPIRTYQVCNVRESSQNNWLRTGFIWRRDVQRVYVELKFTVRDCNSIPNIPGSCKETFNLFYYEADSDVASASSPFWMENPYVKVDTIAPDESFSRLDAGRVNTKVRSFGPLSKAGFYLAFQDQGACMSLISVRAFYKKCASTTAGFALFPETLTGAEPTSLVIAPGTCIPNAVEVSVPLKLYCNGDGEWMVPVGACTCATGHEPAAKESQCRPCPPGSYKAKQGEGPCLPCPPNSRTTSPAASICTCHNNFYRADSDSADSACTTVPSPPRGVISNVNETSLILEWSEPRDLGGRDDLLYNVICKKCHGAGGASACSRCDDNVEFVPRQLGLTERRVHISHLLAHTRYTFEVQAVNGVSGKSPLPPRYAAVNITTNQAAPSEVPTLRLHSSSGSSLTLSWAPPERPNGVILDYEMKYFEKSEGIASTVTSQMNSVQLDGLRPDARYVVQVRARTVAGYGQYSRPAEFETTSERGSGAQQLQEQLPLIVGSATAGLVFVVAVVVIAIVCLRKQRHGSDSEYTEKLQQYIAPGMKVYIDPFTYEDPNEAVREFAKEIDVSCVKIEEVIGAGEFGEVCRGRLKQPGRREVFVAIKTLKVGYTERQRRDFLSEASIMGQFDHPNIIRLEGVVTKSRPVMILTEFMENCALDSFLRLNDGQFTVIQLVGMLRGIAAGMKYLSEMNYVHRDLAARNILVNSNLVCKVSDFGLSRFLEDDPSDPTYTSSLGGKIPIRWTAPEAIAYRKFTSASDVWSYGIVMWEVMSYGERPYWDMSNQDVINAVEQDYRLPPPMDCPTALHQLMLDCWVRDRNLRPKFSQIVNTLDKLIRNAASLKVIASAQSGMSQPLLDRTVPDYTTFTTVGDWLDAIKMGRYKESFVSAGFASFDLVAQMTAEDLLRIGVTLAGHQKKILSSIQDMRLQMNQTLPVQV
Chain of FGR (P09769 whole entry): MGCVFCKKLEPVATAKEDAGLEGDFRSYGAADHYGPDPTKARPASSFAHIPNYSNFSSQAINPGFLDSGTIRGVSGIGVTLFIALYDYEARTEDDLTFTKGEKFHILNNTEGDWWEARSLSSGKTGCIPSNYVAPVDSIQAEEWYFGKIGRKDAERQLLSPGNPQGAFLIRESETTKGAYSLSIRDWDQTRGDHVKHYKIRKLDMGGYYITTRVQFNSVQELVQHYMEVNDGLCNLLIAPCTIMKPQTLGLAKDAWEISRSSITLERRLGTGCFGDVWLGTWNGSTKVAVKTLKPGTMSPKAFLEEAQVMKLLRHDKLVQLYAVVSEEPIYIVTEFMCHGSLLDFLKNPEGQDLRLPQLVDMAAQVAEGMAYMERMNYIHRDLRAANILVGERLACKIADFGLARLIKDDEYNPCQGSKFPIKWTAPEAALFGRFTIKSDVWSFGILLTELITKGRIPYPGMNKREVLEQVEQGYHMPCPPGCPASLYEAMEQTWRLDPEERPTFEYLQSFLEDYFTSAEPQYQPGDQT
T3 sequence (P07949 29-1114 S891A): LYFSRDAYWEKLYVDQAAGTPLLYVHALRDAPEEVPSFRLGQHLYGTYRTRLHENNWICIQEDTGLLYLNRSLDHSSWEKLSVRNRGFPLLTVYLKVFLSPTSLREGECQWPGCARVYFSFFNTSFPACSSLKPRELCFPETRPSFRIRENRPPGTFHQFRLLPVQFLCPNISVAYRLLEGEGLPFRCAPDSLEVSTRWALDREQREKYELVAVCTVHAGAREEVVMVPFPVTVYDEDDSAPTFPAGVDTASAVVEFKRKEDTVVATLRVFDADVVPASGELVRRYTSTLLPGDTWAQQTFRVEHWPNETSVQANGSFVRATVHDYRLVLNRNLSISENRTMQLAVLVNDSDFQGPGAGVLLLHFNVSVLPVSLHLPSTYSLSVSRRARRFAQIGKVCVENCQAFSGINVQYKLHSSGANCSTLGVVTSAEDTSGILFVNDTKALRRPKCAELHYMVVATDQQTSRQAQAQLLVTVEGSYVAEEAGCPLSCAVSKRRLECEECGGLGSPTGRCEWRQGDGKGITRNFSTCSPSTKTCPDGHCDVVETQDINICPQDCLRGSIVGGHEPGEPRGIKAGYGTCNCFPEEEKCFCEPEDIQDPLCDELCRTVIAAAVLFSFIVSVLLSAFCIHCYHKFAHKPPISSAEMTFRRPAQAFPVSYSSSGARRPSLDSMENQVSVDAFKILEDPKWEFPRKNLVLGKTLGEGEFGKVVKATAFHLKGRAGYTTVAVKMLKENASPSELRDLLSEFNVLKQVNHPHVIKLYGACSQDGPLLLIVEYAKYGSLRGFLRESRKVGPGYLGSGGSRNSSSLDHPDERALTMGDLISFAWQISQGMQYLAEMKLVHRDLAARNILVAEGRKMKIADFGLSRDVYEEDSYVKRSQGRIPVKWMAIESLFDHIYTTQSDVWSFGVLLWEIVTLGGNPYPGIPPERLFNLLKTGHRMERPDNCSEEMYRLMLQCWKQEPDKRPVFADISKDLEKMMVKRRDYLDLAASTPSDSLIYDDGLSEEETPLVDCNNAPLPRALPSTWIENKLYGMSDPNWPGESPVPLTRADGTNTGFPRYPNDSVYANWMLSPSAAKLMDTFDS
Chain of FGFR2 (P21802 22-821): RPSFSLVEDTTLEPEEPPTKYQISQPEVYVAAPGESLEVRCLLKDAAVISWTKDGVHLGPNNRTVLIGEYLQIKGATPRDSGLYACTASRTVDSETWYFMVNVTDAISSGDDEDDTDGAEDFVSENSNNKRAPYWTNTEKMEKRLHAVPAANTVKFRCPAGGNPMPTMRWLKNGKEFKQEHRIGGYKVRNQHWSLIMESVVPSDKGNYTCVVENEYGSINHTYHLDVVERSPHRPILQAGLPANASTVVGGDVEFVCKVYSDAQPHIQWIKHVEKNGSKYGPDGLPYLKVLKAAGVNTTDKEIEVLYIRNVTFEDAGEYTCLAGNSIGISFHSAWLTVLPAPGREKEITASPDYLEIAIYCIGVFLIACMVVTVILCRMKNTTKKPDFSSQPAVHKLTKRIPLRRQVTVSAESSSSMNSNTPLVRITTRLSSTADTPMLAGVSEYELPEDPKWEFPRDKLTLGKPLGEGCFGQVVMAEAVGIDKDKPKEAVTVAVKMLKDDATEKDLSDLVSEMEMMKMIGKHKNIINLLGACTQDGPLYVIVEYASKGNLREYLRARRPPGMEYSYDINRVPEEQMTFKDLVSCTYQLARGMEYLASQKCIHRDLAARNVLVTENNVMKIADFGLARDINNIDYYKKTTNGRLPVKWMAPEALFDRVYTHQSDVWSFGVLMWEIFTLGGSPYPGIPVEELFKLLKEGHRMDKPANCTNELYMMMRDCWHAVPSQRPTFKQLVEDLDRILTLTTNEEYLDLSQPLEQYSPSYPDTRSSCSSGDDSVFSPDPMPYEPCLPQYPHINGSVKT
Chain of JNK1 (P45983 whole entry): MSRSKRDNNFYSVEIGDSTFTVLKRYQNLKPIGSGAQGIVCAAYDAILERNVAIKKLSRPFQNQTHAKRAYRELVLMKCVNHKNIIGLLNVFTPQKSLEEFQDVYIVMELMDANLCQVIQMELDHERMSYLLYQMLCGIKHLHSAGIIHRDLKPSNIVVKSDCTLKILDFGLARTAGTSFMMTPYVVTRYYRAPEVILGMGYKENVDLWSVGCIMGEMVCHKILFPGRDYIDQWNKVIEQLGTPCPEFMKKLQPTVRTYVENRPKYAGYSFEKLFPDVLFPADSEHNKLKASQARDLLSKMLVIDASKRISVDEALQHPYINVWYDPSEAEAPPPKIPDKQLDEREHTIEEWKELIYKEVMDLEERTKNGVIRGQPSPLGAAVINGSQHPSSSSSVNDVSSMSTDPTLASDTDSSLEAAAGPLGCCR
T12 sequence (P07949 29-1114 G691S): as the sequence (P07949 29-1114 S891A) above, with G663S, A863S counted along it

Compound: C[C@@H](N)COc1ccc(-c2cnc3ccc(N[C@H](C)c4cccc(F)c4)nn23)cc1.O=C(O)CCCCC(=O)O [DS-6051b]
- inhibition at 0.2 µM (EGFR(d746-750)): -3.4%
- inhibition at 0.2 µM (FLT4): -4.4%
- inhibition at 0.2 µM (Erk2): -3.8%
- inhibition at 0.2 µM (FGR): 6.3%
- inhibition at 0.2 µM (RET(S891A)): 2.5%
- inhibition at 0.2 µM (PDGFRα): 5.7%
- inhibition at 0.2 µM (MET): -6.2%
- inhibition at 0.2 µM (CDK2/CycA2): 2.3%
- inhibition at 0.2 µM (JNK1): -3.3%
- inhibition at 0.2 µM (YES): 9%
- inhibition at 0.2 µM (AurB): -12.2%
- inhibition at 0.2 µM (LYNb): 4.8%
- inhibition at 0.2 µM (EPHA5): -9%
- inhibition at 0.2 µM (PLK3): -3.3%
- inhibition at 0.2 µM (MAPKAPK2): -8.5%
- inhibition at 0.2 µM (ROCK1): -4.5%
- inhibition at 0.2 µM (INSR): 9.4%
- inhibition at 0.2 µM (DYRK1B): -8.2%
- inhibition at 0.2 µM (NEK9): -3.5%
- inhibition at 0.2 µM (BRK): 13.4%
- inhibition at 0.2 µM (CaMK4): -3.3%
- inhibition at 0.2 µM (EPHB3): -0.7%
- inhibition at 0.2 µM (CDK7/CycH/MAT1): -0.3%
- inhibition at 0.2 µM (RET(G691S)): -0.256%
- inhibition at 0.2 µM (EPHA8): -9.1%
- inhibition at 0.2 µM (EPHA6): -5.7%
- inhibition at 0.2 µM (CK1α): -1%
- inhibition at 0.2 µM (Erk1): -4.9%
- inhibition at 0.2 µM (FGFR2): 4.8%
- inhibition at 0.2 µM (PKCε): 18.8%
- inhibition at 0.2 µM (KDR): -5.4%
- inhibition at 0.2 µM (JNK2): -5.1%
- inhibition at 0.2 µM (RSK3): -3.2%
- inhibition at 0.2 µM (GSK3α): -3.4%
- inhibition at 0.2 µM (EPHB1): -3.5%
- inhibition at 0.2 µM (AXL): 18%
- inhibition at 0.2 µM (SGK): -3.8%
- inhibition at 0.2 µM (SIK): 8.9%
- inhibition at 0.2 µM (HCK): -6%
- inhibition at 0.2 µM (FGFR1): 3.4%
- inhibition at 0.2 µM (IRAK4): -0.4%
- inhibition at 0.2 µM (CDC2/CycB1): -6.7%

— publication PMC6688997 (Nature Communications, 2019)
